Measurements reported in patent publication US20240182521A1, “CELL-PENETRATING PEPTIDE VARIANT AND USE THEREOF” (REGEN INNOPHARM INC., priority 2021, published 2024).

Tests used:
NIH3T3 cells [1] = test: Intracellular stability, cell proliferation and migration of RNA binding / zinc finger region variants; assay type: cell-based, mouse
Method: The protein stability of variants with mutations in the RNA binding region and the zinc finger region was confirmed. Specifically, LPX103 variants with mutated amino acid residues for RNA binding during cell migration were treated with NIH3T3 cells for 1 day, respectively, and based on the molecular modeling program, the intracellular stabilization effect of each peptide was analyzed after 72 hours. The mutation energy of each amino acid residue was confirmed, and variants that may cause<−1 Kcal/mol due to substitution were selected as potential mutations that may increase the stability and activity of the peptide (FIGS. 23 and 24). The effects of the selected variants on cell proliferation and cell migration were confirmed in NIH3T3 cells (FIG. 25), and as a result, mutations in the RNA binding region and the zinc finger region that improved or decreased the stability of the peptide in the cell were confirmed (FIG. 26).

NIH3T3 cells [2] = test: Glycolysis, extracellular acidification rate (ECAR), Seahorse XF analyzer; assay type: cell-based, mouse
Method: NIH3T3 cells were incubated in a glucose-free medium for 1 day and then sequentially treated with glucose, oligomycin, and 2-DG, and an extracellular acidification rate (ECAR) was measured as a measure of lactate production using a Seahorse extracellular flux (XF) analyzer and quantification and profile of ECAR were confirmed in cells treated with LPX peptide (Mean SEM n=3, *; p<0.05).

[3] = test system: STZ-induced diabetic mouse model; test: Wound healing in STZ-induced diabetic mouse model; assay type: in vivo; conditions: 2 mg/ml (20 μl)
Method: (§1) The wound healing effects of LPX101, LPX102, and LPX103 were confirmed in an STZ-induced diabetic mouse model. […] Thereafter, according to a schedule shown in FIG. 12A, PBS (negative control), EGF (positive control) 50 μg/ml, LPX101 2 mg/ml (20 μl), LPX102 and LPX103 (2 mg/ml (20 μl)) were treated, respectively, and then the effect of wound healing in a diabetes-induced mouse model was confirmed through imaging, re-epithelialization, and diabetes phenotypes (hyperglycemia and impaired glucose tolerance test (IPGTT)) (n=10 for each group, *; p<0.05). Additionally, to compare the regenerative activity of LPX peptides in a diabetic mouse model, wound healing kinetics measured by a % non-epithelialized area to an initial wound area (n=8 for each group), and quantification of re-epithelialization analyzed as % of a re-epithelialized area to the initial wound area were confirmed.

[4] = test system: diabetic model mice (db/db); test: Blood vessel formation in diabetic wounds (histology, day 7); assay type: in vivo, mouse; conditions: once daily, day 7 after wounding
Method: Since diabetic ulcers were hardly treated by insufficient vascular supply due to impaired angiogenesis and ischemic necrosis, it was confirmed whether the LPX peptide contributed to blood vessel formation in diabetic wound healing. Specifically, diabetic model mice (db/db) were wounded and then treated with LPX 103 or EGF once daily, and the recovery of angiogenesis was analyzed on day 7 after wounding, and in order to visualize the extravasation of red blood cells within the tissue, the wound and entrance (red dotted box) of each group were magnified and images were confirmed.

[5] = test system: diabetic human epidermal keratinocyte (DHEK); test: Cell migration across a scratched boundary; assay type: cell-based; conditions: DHEK cells; at lower concentrations than LPX101
Method: An effect of LPX101 peptide on cell growth was confirmed in a NIH3T3 cell line, and the effects of LPX101, LPX102, and LPX103 peptides on cell migration were confirmed in diabetic human epidermal keratinocyte (DHEK) as a diabetic cell line. Specifically, mMSC or NIH3T3 cells were treated with the LPX101 peptide, incubated for 1 hour, and then washed. A % increase in cell growth by LPX treatment was confirmed by measuring the number of cells after 3 days of treatment and calculating a relative proliferation rate as % compared to a control group (n=3). Additionally, in order to confirm the cell migration effect, DHEK cells were treated with LPX101, LPX102, and LPX103 peptides, incubated for 1 hour, and then washed. Thereafter, the migration of cells across a scratched boundary was measured 72 hours after treatment. The number of cells that migrated across a scratch line was measured by image analysis using ImageJ.

[6] = test system: diabetes model mice (db/db); test: Diabetic wound healing in diabetes model mice (db/db); assay type: in vivo, mouse; conditions: db/db mouse model
Method: The skins of wild type (WT) mice and diabetes model mice (db/db) (n=14 each) were punched with an 8 mm diameter puncher and treated with LPX101 (2 mg/ml, 20 μl) or PBS daily for 14 days and subjected to wound dressing. The wound healing effect was confirmed by analyzing an initial wound area and a re-epithelialization area using ImageJ (mean SEM n=3, *; p<0.05). In addition, the wound healing effect in wounds treated with LPX101 was histologically evaluated. Specifically, diabetic mice (db/db) were stained with H/E or trichrome at 7 and 14 days after wound induction and then confirmed under a microscope, and re-epithelialization and granulation tissue were quantified using ImageJ (n=3, ***; p<0.001). In addition, the wounds of db/db mice were treated with LPX101, and the tissue epidermis after 14 days was histologically analyzed.
as §1

NIH3T3 cells [7] = test: Cell migration effects, Table 1; assay type: cell-based, mouse; conditions: vehicle = 1
Method: Various variants of the LPX peptides were prepared as illustrated in FIG. 18. Specifically, various constructs (26 constructs including 101) were prepared by adding various mutations (substitution of a CPP region, amino acid mutation of an RNA binding portion and a zinc finger structure, and addition of his-tag) to the structure of LPX101 in FIG. 19 (FIG. 20).

[8] = test system: diabetic mouse model (db/db); test: Diabetic wound healing by combined treatment with EGF; assay type: in vivo; conditions: db/db mice, 8 mm punch wound
Excerpt: The diabetic wound healing effect by combined treatment with LPX peptide and EGF was confirmed.

[9] = test system: NIH3T3 cell line and mouse mesenchymal stem cells (mMSCs); test: Cell penetrating effect (FACS, confocal microscopy) of FITC-attached peptides; assay type: cell-based; conditions: compared to LPX101 (2 μM)
Excerpt: A cell penetrating effect was confirmed in penetrating peptides LPX101 (SEQ ID NO: 11), LPX102 (SEQ ID NO: 12), and LPX103 (SEQ ID NO: 13) having three structures including a signal peptide, an RNA binding affinity residue, and an RNA binding residue (FIG. 1), and two zinc finger motifs. Specifically, in order to measure cell penetrating efficiency, respective peptides that may have been attached to the cell membrane surface were removed by applying a Heparin & Trypsin washing method used in a Keplan group [Kaplan I M, Wadia J S, Dowdy S F (2005) Cationic TAT peptide transduction domain enters cells by macropinocytosis. J Controlled release 102: 247-253] to a NIH3T3 cell line and mouse mesenchymal stem cells (mMSCs). […] Then, the cells were washed three times with PBS and detached with trypsin, and then FACS analysis was performed. In addition, whether each peptide actually existed in the nucleus or cytoplasm of the cell was confirmed by confocal microscopy after 18 hours of peptide treatment, and membrane binding was labeled with PKH.

diabetic mice (db/db) = test: Histological evaluation of wound re-epithelialization (H/E, day 10); assay type: in vivo, mouse; conditions: day 10 after initial injury
Excerpt: In order to histologically evaluate wound re-epithelialization in diabetic mice by LPX peptides 101, 102 and 103, wound tissues from diabetic mice (db/db) treated by each LPX were H/E stained on day 10 after initial injury and confirmed under a microscope (50X and 100x).

Q: With “LPX103: cell-penetrating peptide consisting of amino acid sequence SEQ ID NO: 13 (GSERRPKGKSMQKRRSKGDRCYNCGGLDHHAKECKL; LPX103)” as the substance, how does the “stability and biological activity” value (NIH3T3 cells [1]) read?
A: The value was “high stability and biological activity”.

Q: What about the “glucose metabolism (glycolysis), ECAR” value (NIH3T3 cells [2]) of the same substance?
A: Its value is “promoted glucose metabolism (glycolysis)”.

Q: And the “wound healing effect compared to LPX101” value [3]?
A: Its value is “better effects than LPX101”.

Q: What about the “capillary formation compared to EGF” value [4] of the same substance?
A: The value was “more mature capillary formation”.

Q: And the “hemorrhage (extravasation of RBC) compared to EGF” value [4]?
A: The value was “less hemorrhage (extravasation of RBC)”.

Q: What about the “cell migration compared to LPX101” value [5] of the same substance?
A: Its value is “promoted cell migration to a similar extent to LPX101”.

Q: And the “diabetic wound healing effect (wound healing kinetics and re-epithelialization) compared to LPX101” value [6]?
A: The value was “better diabetic wound healing effect than LPX101”.

Q: What about the “Effects on cell migration (3 expts)” value (NIH3T3 cells [7]; 1 uM) of the same substance?
A: The value was 1.3.

Q: And the “Effects on cell migration (3 expts)” value (NIH3T3 cells [7]; 5 uM)?
A: The value was 1.3.

Q: And the “diabetic wound healing effect in combination with EGF” value [8]?
A: Its value is “improved when treated in combination with EGF”.

Q: And the “cell permeability compared to LPX101” value [9]?
A: The value was “high cell permeability similar to LPX101”.

Q: What about the “re-epithelialization of diabetic wounds (histology)” value (diabetic mice (db/db)) of the same substance?
A: The value was “significantly improved re-epithelialization”.
